Assay results reported in ChEMBL document CHEMBL1201862, “PubChem BioAssay data set” (2004).
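Cells were grown in 96-well plates and exposed to each compound for 48 hours at five concentrations; endpoints were interpolated linearly between bracketing concentrations, or set to the highest concentration if not reached. GI50 = concentration required for 50% inhibition of growth.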 Calls of active or inactive are those of the source. No stated cut-off is given here; in the data, active = GI50 up to about 1.1 µM and inactive = higher.

What was measured:
Test in all cases: NCI tumour cell line growth inhibition, 48 h
SF-539 = system: SF-539
M14 = system: M14
HT-29 = system: HT-29
OVCAR-8 = system: OVCAR-8
HOP-62 = system: HOP-62
CAKI-1 = system: CAKI-1
ACHN = system: ACHN
EKVX = system: EKVX
Malme-3M = system: Malme-3M
K562 = system: K562
KM12 = system: KM12
CCRF-CEM = system: CCRF-CEM
OVCAR-5 = system: OVCAR-5
T47D = system: T47D
MDA-MB-231 = system: MDA-MB-231
NCI/ADR-RES = system: NCI/ADR-RES
MDA-MB-435 = system: MDA-MB-435
Hs-578T = system: Hs-578T
HL-60 = system: HL-60

SMILES	GI50 (SF-539)	GI50 (M14)	GI50 (HT-29)	GI50 (OVCAR-8)	GI50 (HOP-62)	GI50 (CAKI-1)	GI50 (ACHN)	GI50 (EKVX)	GI50 (Malme-3M)	GI50 (K562)	GI50 (KM12)	GI50 (CCRF-CEM)	GI50 (OVCAR-5)	GI50 (T47D)	GI50 (MDA-MB-231)	GI50 (NCI/ADR-RES)	GI50 (MDA-MB-435)	GI50 (Hs-578T)	GI50 (HL-60)
C=C1C(=O)O[C@H]2C[C@@H](C)[C@@H]3CC(=O)OC[C@@]3(C)CC12 (stereo partly drawn)	21.9 µM (inactive)	14.4 µM (inactive)	17.5 µM (inactive)	17.9 µM (inactive)	44.8 µM (inactive)	18 µM (inactive)	21.7 µM (inactive)	27.5 µM (inactive)	17.9 µM (inactive)	17.5 µM (inactive)	20.5 µM (inactive)	12.9 µM (inactive)							
CCOC(=O)/C=C(\C(=O)OCC)n1cc(C)c(=O)n(Cc2cn(COCCOC(C)=O)nn2)c1=O	3.61 µM (inactive)		7.33 µM (inactive)	8.43 µM (inactive)	20.3 µM (inactive)	2.84 µM (inactive)	7.62 µM (inactive)	10.5 µM (inactive)		5.69 µM (inactive)	16.2 µM (inactive)	1.85 µM (inactive)	14.5 µM (inactive)	21.3 µM (inactive)	20.1 µM (inactive)	22.6 µM (inactive)	6.55 µM (inactive)	17.1 µM (inactive)	
CC1CNC(c2ccc3c(c2)Cc2cc(C4=NC(C)CN4)ccc2-3)=N1 (stereo not drawn)		40.2 µM (inactive)	61.2 µM (inactive)	37.2 µM (inactive)	41 µM (inactive)	> 100 µM (inactive)	> 100 µM (inactive)	> 100 µM (inactive)	19.2 µM (inactive)	34.4 µM (inactive)	20.3 µM (inactive)	> 100 µM (inactive)	> 100 µM (inactive)	35.6 µM (inactive)	33.6 µM (inactive)	> 100 µM (inactive)	25.8 µM (inactive)	38.1 µM (inactive)	
Nc1nc(N)c(CCCCc2ccccc2)c(C=O)n1	18.9 µM (inactive)	16.4 µM (inactive)	9.62 µM (inactive)	16.3 µM (inactive)	> 100 µM (inactive)	27.3 µM (inactive)	22.5 µM (inactive)	21 µM (inactive)	18.1 µM (inactive)	5.81 µM (inactive)	15.9 µM (inactive)	10.6 µM (inactive)	> 100 µM (inactive)						
Cc1[nH]c(=O)nc(NCCNCCO)c1C(=O)Nc1c2ccccc2nc2ccccc12	> 100 µM (inactive)	> 100 µM (inactive)	> 100 µM (inactive)	> 100 µM (inactive)	> 100 µM (inactive)	> 100 µM (inactive)	> 100 µM (inactive)	> 100 µM (inactive)	> 100 µM (inactive)	> 100 µM (inactive)	> 100 µM (inactive)	> 100 µM (inactive)	> 100 µM (inactive)	> 100 µM (inactive)	> 100 µM (inactive)	> 100 µM (inactive)	> 100 µM (inactive)		> 100 µM (inactive)
C(=N\c1ccc(-c2nc3ccccc3o2)cc1)/c1ccco1	> 100 µM (inactive)	79.6 µM (inactive)	63.5 µM (inactive)	> 100 µM (inactive)		40 µM (inactive)	49.7 µM (inactive)	48.3 µM (inactive)	82.2 µM (inactive)				> 100 µM (inactive)	38.6 µM (inactive)		61.7 µM (inactive)	75.9 µM (inactive)		
COC(=O)c1ccc(C(=O)NC(Cc2ccc(Oc3cc(CC(NC(=O)c4ccccc4C(=O)OC)C(=O)OC)ccc3OC)cc2)C(=O)OC)cc1 (stereo not drawn)	63.5 µM (inactive)	> 100 µM (inactive)	> 100 µM (inactive)	86.3 µM (inactive)	36.3 µM (inactive)	> 100 µM (inactive)	> 100 µM (inactive)	> 100 µM (inactive)	> 100 µM (inactive)	> 100 µM (inactive)	> 100 µM (inactive)	> 100 µM (inactive)	> 100 µM (inactive)	> 100 µM (inactive)		> 100 µM (inactive)	> 100 µM (inactive)	4.21 µM (inactive)	> 100 µM (inactive)
CC(C)/C(Cl)=N\OC(=O)Nc1ccc(F)cc1	16.9 µM (inactive)	4.06 µM (inactive)	2.04 µM (inactive)	12.8 µM (inactive)	19.2 µM (inactive)		3.55 µM (inactive)	5.62 µM (inactive)	1.95 µM (inactive)	1.5 µM (inactive)	16.6 µM (inactive)	0.916 µM (active)	14.6 µM (inactive)	6.53 µM (inactive)	3.47 µM (inactive)	6.9 µM (inactive)		24.7 µM (inactive)	1.55 µM (inactive)
